Experimental data: US12115159B2, “Pharmaceutical composition for preventing or treating nonalcoholic fatty liver disease, containing GPR119 ligand as active ingredient” (DONG-A ST CO., LTD., priority 2018, dated 2024)

Columns and labels:
[1] = tested on: C57BL/6J mouse with induced non-alcoholic steatohepatitis; experiment: Change in gene expression in liver tissues (RNAseq), C57BL/6J DIO-NASH mouse model; format: in vivo; conditions: C57BL/6J DIO-NASH_Compd1, eight weeks after drug administration, vs. DIO-NASH, FIG. 16
Method: (§1) A six-week-old male C57BL/6J mouse was fed with a special diet comprising high fat, high fructose, and high cholesterol for at least 26 weeks, and thus was induced to develop non-alcoholic steatohepatitis. It was confirmed that fatty liver and inflammatory fibrosis are induced through a biopsy of liver tissues three weeks before drug supply, and mice were evenly distributed into each group based on the area of collagen stained in the liver tissues. A feed was prepared by mixing the compounds according to the present invention in a special diet and supplied for additional eight weeks. According to the diet supplied to the mice, each of the groups was classified as a control group fed with a normal diet (Normal), a positive control group in which mice with induced non-alcoholic steatohepatitis due to the special diet were not supplied with a drug (DIO-NASH), and a group in which mice with induced non-alcoholic steatohepatitis were supplied with the compound 1 in an amount of 30 mg/kg/day (L) and […] (H) (Cmpd1 (L) and Cmpd1 (H), respectively).
To analyze a change in total gene expression in liver tissues isolated from the above mouse model in eight weeks after drug administration, the isolated RNA fraction was used to generate a library by using NeoPrep (Illumina), and subjected to RNAseq profiling through NexSeq 500 (Illumina), after which bioinformatics analysis was performed and changes in major gene groups were classified for each function, so that the results thereof are shown in FIG. 16.

[2] = tested on: ob/ob mouse with induced non-alcoholic steatohepatitis; experiment: Expression of genes associated with inflammation and fibrosis in liver tissues (real-time PCR), ob/ob NASH mouse model; format: in vivo; conditions: 100 mg/kg/day mixed in special diet for 10 weeks, FIG. 6
Method: (§2) A six-week-old male ob/ob mouse with leptin deficiency was fed with a special diet containing high fat, high fructose, and high cholesterol for 10 weeks, and thus was induced to develop non-alcoholic steatohepatitis. A mixed form of diet was prepared so that a daily dose of (3-(4-(3-(1-(5-ethylpyrimidin-2-yl)piperidin-4-yl)propoxy)-2,6-difluorophenyl)-5-isopropyl-1,2,4-oxadiazole (hereinafter, “compound 1”) reaches 100 mg/kg/day in the compound represented by the chemical formula 1, and supplied to the mouse from a time point of starting the supply of the special diet for 10 weeks.
To measure an expression level of inflammation-related genes and fibrosis-related genes in liver tissues, Trizol® (Invitrogen) was added to the liver tissues collected from the mouse model, after which a total RNA was extracted from the tissues according to the method provided by the manufacturer, and then cDNA was synthesized by using a reverse transcriptase. Then, a real-time polymerase chain reaction was performed in LightCycler®480 Instrument II (RocheLifeScience) equipment by using a reagent of SYBR Green I Master Mix (Roche, 04707516001), and the results thereof are shown in FIG. 6.

human monocytes (THP-1) = experiment: Effect on differentiation of human monocytes into macrophages (IL-1β secretion, ELISA); format: cell-based; conditions: THP-1 co-treated with compound during PMA (50 ng/ml) differentiation for 48 hours, then LPS (0.5 ng/ml) for four hours; FIG. 8
Method: (§3) Then, THP-1 monocytes were treated with PMA (50 ng/ml) for 48 hours to be differentiate into macrophages, while the compound 1 was co-treated, then replaced with serum-free medium, and then treated with lipopolysaccharides (LPS, 0.5 ng/ml) for four hours so as to quantity interleukin-1β (IL-1β, R&D Systems, DY201) secreted into the medium by using a commercialized ELISKA kit and evaluate an effect on the differentiation of monocytes, so that the results thereof are shown in FIG. 8.

[3] = tested on: differentiated macrophages (THP-1); experiment: Effect on activation of differentiated macrophages by LPS (IL-1β secretion, ELISA); format: cell-based, human; conditions: differentiated macrophages treated with compound for 48 hours, then LPS; FIG. 9
Method: as §3
In addition, after treating the differentiated macrophages with the compound 1 for 48 hours, the secreted IL-1β was quantified by the same method as above with regard to the activation of immune cells by LPS, so as to evaluate an effect on the activation of differentiated macrophages.

[4] = tested on: ob/ob mouse with induced non-alcoholic steatohepatitis; experiment: AST and ALT measurement in blood, ob/ob NASH mouse model; format: in vivo; conditions: 100 mg/kg/day mixed in special diet for 10 weeks, plasma, vs. Ob-NASH, FIG. 4
Method: as §2
The mouse model with induced non-alcoholic steatohepatitis was subjected to autopsy, after which plasma was separated therefrom, so as to quantify aspartate aminotransferase (AST) and alanine aminotransferase (ALT) by using an automatic blood analyzer (Konelab 20i), and the results thereof are shown in FIG. 4.

[5] = tested on: C57BL/6J mouse with induced non-alcoholic steatohepatitis; experiment: AST and ALT measurement in blood, C57BL/6J DIO-NASH mouse model; format: in vivo; conditions: C57BL/6J DIO-NASH_Compd1, compound in special diet for eight weeks, plasma, vs. DIO-NASH; FIG. 15
Method: as §1
Each of the mouse groups was subjected to autopsy, after which plasma was separated therefrom, so as to quantity aspartate aminotransferase (AST) and alanine aminotransferase (ALT) by using an automatic blood analyzer (Konelab 20i).

[6] = tested on: ob/ob mouse with induced non-alcoholic steatohepatitis; experiment: Concentration of proteins associated with inflammation and fibrosis in liver tissues (ELISA), ob/ob NASH mouse model; format: in vivo; conditions: 100 mg/kg/day mixed in special diet for 10 weeks, vs. Ob-NASH, FIG. 5
Method: as §2
To evaluate an effect on the expression of inflammation-related genes and fibrosis-related proteins in liver tissues, the liver tissues obtained from the mouse model were put into RIPA buffer (Cell Signaling) and pulverized with TissueLyser II™ (Quiagen), after which a total protein concentration was quantified with Pierce BCA Protein Assay Kit (Thermo Fisher Scientific) and a protein concentration of Mouse Ccl2 (=Mcp1; R&D Systems, MJE00) and Timp1 (R&D Systems, MTM100) in the liver tissues was quantified by using a commercially available ELISA kit, so that the results thereof are shown in FIG. 5.

[7] = tested on: ob/ob mouse with induced non-alcoholic steatohepatitis; experiment: Histological examination of liver (HE, Masson's Trichrome / Sirius stain) in ob/ob mouse model with induced non-alcoholic steatohepatitis; format: in vivo; conditions: 100 mg/kg/day mixed in special diet for 10 weeks, vs. Ob-NASH
Method: as §2
For a histological examination, the prepared mouse model with induced non-alcoholic steatohepatitis was subjected to autopsy to fix an isolated liver tissue in 10% formalin and prepare a paraffin block, thereby obtaining a 2 μm-thick tissue section. To confirm infiltration of inflammatory cells, Hematoxylin and Eosin (HE) stain was performed using an automatic staining machine (Autostainner XL, Leica), and the results thereof are shown in FIGS. 1 and 2.
Then, for evaluation of fibrosis, fibers in liver tissue were specifically stained by using Masson's Trichrome stain or Sirius Res stain, and the results thereof are shown in FIGS. 2 and 3.

[8] = tested on: C57BL/6J mouse with induced non-alcoholic steatohepatitis; experiment: NAFLD activity score (NAS) before and after administration, C57BL/6J DIO-NASH mouse model; format: in vivo; conditions: compound in special diet for eight weeks, FIG. 12
Method: as §1

[9] = tested on: C57BL/6J mouse with induced non-alcoholic steatohepatitis; experiment: Evaluation of fibrosis (Sirius stain, type I collagen immunostaining), C57BL/6J DIO-NASH mouse model; format: in vivo; conditions: C57BL/6J DIO-NASH_Compd1, compound in special diet for eight weeks, vs. DIO-NASH; FIGS. 13 and 14
Method: as §1
Then, for the evaluation of fibrosis, the fibers of the liver tissues were specifically stained with Sirius Res stain in the mice of each group, and a content of type I collagen in the liver tissues was measured by an imaging analysis method after immunostaining, so that the results thereof are shown in FIGS. 13 and 14.

[10] = tested on: C57BL/6J mouse with induced non-alcoholic steatohepatitis; experiment: Histological examination (HE) and triglyceride content of liver, C57BL/6J DIO-NASH mouse model; format: in vivo; conditions: Compd1 (H) group, in special diet for eight weeks after induction, vs. DIO-NASH, FIGS. 10 and 11
Method: as §1
For a histological examination, the prepared C57BL/6J mouse model was subjected to autopsy to fix an isolated liver tissue in 10% formalin and prepare a paraffin block, thereby obtaining a 2 μm-thick tissue section. […]

Structure (SMILES): CCc1cnc(N2CCC(CCCOc3cc(F)c(-c4noc(C(C)C)n4)c(F)c3)CC2)nc1 [compound 1, 3-(4-(3-(1-(5-ethylpyrimidin-2-yl)piperidin-4-yl)propoxy)-2,6-difluorophenyl)-5-isopropyl-1,2,4-oxadiazole]
- expression of fibrosis markers in liver tissues [1]: remarkable decrease
- expression of macrophage markers in liver tissues [1]: remarkable decrease
- expression of monocyte attractants in liver tissues [1]: remarkable decrease
- increase in expression of fibrosis-related genes (Tgfb1, Col1a, Timp1, Timp2, Acta2) in liver tissues [2]: significantly inhibited
- increase in expression of inflammation-related genes (Ccl2, Lgals3, Tnfa) in liver tissues [2]: significantly inhibited
- IL-1β secretion caused by activation of macrophages (human monocytes (THP-1)): decreased in a concentration-dependent manner
- IL-1β secretion caused by activation of macrophages [3]: decreased in a concentration-dependent manner
- ALT level in blood [4]: significant inhibition of increase
- AST level in blood [4]: significant inhibition of increase
- concentration of ALT in blood [5]: significantly inhibited increase
- concentration of AST in blood [5]: significantly inhibited increase
- protein level of Ccl2 (=Mcp1) in liver tissues [6]: significantly inhibited
- protein level of Timp1 in liver tissues [6]: significantly inhibited
- infiltration of inflammatory cells in liver tissues ([7]; FIGS. 1 and 2): significantly inhibited
- fibrosis of liver tissues ([7]; FIGS. 2 and 3): significantly inhibited
- worsening of disease by NAFLD activity score (NAS), before vs. after administration ([8]; C57BL/6J DIO-NASH, disease worsened in 50% of the DIO-NASH group): no individual was deteriorated
- share of group in which the disease was ameliorated by NAFLD activity score (NAS) ([8]; C57BL/6J DIO-NASH_Compd1 group): about 50%
- cross-linking formation in fibers of the liver tissues [9]: remarkable decrease
- type I collagen in liver tissues [9]: significant decrease
- fat deposits in liver tissues [10]: significant decrease
- infiltration of inflammatory cells in liver tissues [10]: significant decrease
